Experimental data taken from US8987502B2, “Oleanolic acid amidate derivatives, preparation methods and uses thereof” (Hangzhou Bensheng Pharmaceutical Co., Ltd., priority 2011, dated 2015).

Assays:
K562/adr = assay: MTT leukemia cell proliferation inhibition, K562/adr; type: cell-based; conditions: Homo sapiens, 72 h
Description: (§1) Leukemia cell lines: leukemia cell lines: K562/adr (drug-resistant, chronic myeloid leukemia, CML), NB4 (acute promyelocytic leukemia, AML), Kasumi-1 (acute myeloid leukemia M2 type, AML-M2), Jurkat (acute lymphoblastic leukemia, ALL), all of which are donated by Cancer Research Institute of Zhejiang University, China; and H9 (acute lymphoblastic leukemia, ALL), which is purchased from China Center for Type Culture Collection (CCTCC).
(§2) Reagents: The standard sample of oleanolic acid (OA) is purchased from Hua Kang Pharmaceutical Raw Material Factory, Shifang City, Sichuan, China; and the amidated oleanolic acid derivatives are prepared according to the present invention.
(§3) Obtaining 6000 well-growing leukemia cells and inoculating them into wells of a 96-well cell culture plate. The culture medium is the 1640 cell culture medium containing 10% fetal bovine serum. After adding the amidated oleanolic acid derivatives of different concentrations and mixing uniformly, placing the plate in a carbon dioxide cell incubator (5% CO2) at 37° C. and incubated for 72 hours. Then the relative number of viable cells is determined by the MTT method. In this experiment, the cell proliferation inhibition rate in control group (not treated with any compound) is set as 0%.

NB4 = assay: MTT leukemia cell proliferation inhibition, NB4; type: cell-based; conditions: Homo sapiens, NB-4
Description: as §1, §2, §3

Kasumi-1 = assay: MTT leukemia cell proliferation inhibition, Kasumi-1; type: cell-based; conditions: Homo sapiens
Description: as §1, §2, §3

H9 = assay: MTT leukemia cell proliferation inhibition, H9; type: cell-based, human; conditions: Homo sapiens
Description: as §1, §2, §3

Jurkat = assay: MTT leukemia cell proliferation inhibition, Jurkat; type: cell-based; conditions: Homo sapiens, 72 h
Description: as §1, §2, §3

RPMI8226 = assay: MTT multiple myeloma cell proliferation inhibition, RPMI8226; type: cell-based; conditions: Homo sapiens, RPMI-8226
Experimental: Multiple myeloma cell lines: RPMI8226 (multiple myeloma), purchased from Fuxiang Bio-tech Co. Ltd., Shanghai, China.
as §3

A549 = assay: MTT solid tumor cell proliferation inhibition, A549; type: cell-based, human; conditions: Homo sapiens
Experimental: (§4) Human solid tumor cell lines: Hep-2 (laryngeal carcinoma), A549 (human lung cancer), CaES-17 (esophageal cancer cell), PC-3 (prostate cancer), CNE (nasopharyngeal carcinoma cell), and SK-OV-3 (ovarian cancer cell), all of which are purchased from China Center For Type Culture Collection; RKO (human colon adenocarcinoma cell), MGC 803 (human gastric cancer cell), MG63 (osteosarcoma) and U87 MG (malignant glioma cell), all of which are purchased from Fuxiang Bio-tech Co. Ltd., Shanghai, China; PANC-1 (pancreatic cancer), Hep G2 (human liver cancer cell), Becap37 (human breast cancer cell), and Hela (human cervical cancer cell), all of which are donated by Cancer Research Institute of Zhejiang University, China.
(§5) Obtaining 4000 well-growing human solid tumor cells and inoculating them into wells of a 96-well cell culture plate. The culture medium is DMEM High Glucose cell culture medium containing 10% fetal bovine serum. The plate is placed in a carbon dioxide cell incubator (5% CO2) at 37° C. for 24 hours for incubation. After being added with the amidated oleanolic acid derivatives of different concentrations and mixed uniformly, the plate is placed in a carbon dioxide cell incubator (5% CO2) at 37° C. for 72 hours for incubation. Then the relative number of the living cells is determined by the MTT method. In this experiment, the cell proliferation inhibition rate in control group (not treated with any compound) is set as 0%.

PANC-1 = assay: MTT solid tumor cell proliferation inhibition, PANC-1; type: cell-based, human; conditions: Homo sapiens
Experimental: as §4, §5

Becap37 = assay: MTT solid tumor cell proliferation inhibition, Becap37; type: cell-based; conditions: Homo sapiens
Experimental: as §4, §5

MG 63 = assay: MTT solid tumor cell proliferation inhibition, MG 63; type: cell-based, human
Experimental: as §4, §5

Hep G2 = assay: MTT solid tumor cell proliferation inhibition, Hep G2; type: cell-based; conditions: Homo sapiens, HepG2
Experimental: as §4, §5

RKO = assay: MTT solid tumor cell proliferation inhibition, RKO; type: cell-based; conditions: Homo sapiens, 72 h
Experimental: as §4, §5

U87 MG = assay: MTT solid tumor cell proliferation inhibition, U87 MG; type: cell-based, human; conditions: Homo sapiens, U-87 MG, U87 MG, 72 h
Experimental: as §4, §5

Hela = assay: MTT solid tumor cell proliferation inhibition, Hela; type: cell-based, human; conditions: Homo sapiens, Hela, 72 h
Experimental: as §4, §5

CaES-17 = assay: MTT solid tumor cell proliferation inhibition, CaES-17; type: cell-based, human; conditions: Homo sapiens, CaEs17
Experimental: as §4, §5

CNE = assay: MTT solid tumor cell proliferation inhibition, CNE; type: cell-based, human; conditions: Homo sapiens, CNE, 72 h
Experimental: as §4, §5

Hep-2 = assay: MTT solid tumor cell proliferation inhibition, Hep-2; type: cell-based, human; conditions: Homo sapiens
Experimental: as §4, §5

MGC803 = assay: MTT solid tumor cell proliferation inhibition, MGC803; type: cell-based, human; conditions: Homo sapiens, MGC-803
Experimental: as §4, §5

PC-3 = assay: MTT solid tumor cell proliferation inhibition, PC-3; type: cell-based, human; conditions: Homo sapiens
Experimental: as §4, §5

SK-OV-3 = assay: MTT solid tumor cell proliferation inhibition, SK-OV-3; type: cell-based, human; conditions: Homo sapiens
Experimental: as §4, §5

[1] = 16 μg/mL compound, read-out: IR (inhibition rate)

Q: CC1(C)CC[C@]2(C(=O)O)CC[C@]3(C)C(=CC[C@@H]4[C@@]5(C)CC[C@H](O)C(C)(C)[C@@H]5CC[C@]43C)[C@@H]2C1 [OA, Oleanolic acid] was tested. Which inhibition at 16 µg/mL (K562/adr; [1]) did it give?
A: Its inhibition at 16 µg/mL is 26.5%.

Q: And the IC50 (K562/adr; MTT)?
A: The IC50 was greater than 16 µg/mL.

Q: What about the inhibition at 16 µg/mL (NB4; NB4, 16 μg/mL compound, 72 h, read-out: IR (inhibition rate)) of the same compound?
A: Its inhibition at 16 µg/mL is 17.2%.

Q: And the IC50 (NB4; NB4, 72 h, MTT)?
A: The IC50 was greater than 16 µg/mL.

Q: What about the inhibition at 16 µg/mL (Kasumi-1; Kasumi-1, 16 μg/mL compound, 72 h, read-out: IR (inhibition rate)) of the same compound?
A: Its inhibition at 16 µg/mL is 17.2%.

Q: What about the IC50 (Kasumi-1; Kasumi-1, 72 h, MTT) of the same compound?
A: The IC50 was greater than 16 µg/mL.

Q: What about the inhibition at 16 µg/mL (H9; H9, 16 μg/mL compound, 72 h, read-out: IR (inhibition rate)) of the same compound?
A: Its inhibition at 16 µg/mL is 22.8%.

Q: And the IC50 (H9; H9, 72 h, MTT)?
A: Its IC50 is greater than 16 µg/mL.

Q: What about the inhibition at 16 µg/mL (Jurkat; [1]) of the same compound?
A: Its inhibition at 16 µg/mL is 9.4%.

Q: What about the IC50 (Jurkat; MTT) of the same compound?
A: Its IC50 is greater than 16 µg/mL.

Q: And the inhibition at 16 µg/mL (RPMI8226; RPMI8226, 16 μg/mL compound, 72 h, read-out: IR (inhibition rate))?
A: Its inhibition at 16 µg/mL is 2.2%.

Q: And the IC50 (RPMI8226; RPMI8226, 72 h, MTT)?
A: The IC50 was greater than 16 µg/mL.

Q: And the inhibition at 16 µg/mL (A549; A549, 16 μg/mL compound, 72 h, read-out: IR (inhibition rate))?
A: Its inhibition at 16 µg/mL is 5%.

Q: And the IC50 (A549; A549, 72 h, MTT)?
A: Its IC50 is greater than 16 µg/mL.

Q: And the inhibition at 16 µg/mL (PANC-1; PANC-1, 16 μg/mL compound, 72 h, read-out: IR (inhibition rate))?
A: The inhibition at 16 µg/mL was 8.5%.

Q: And the IC50 (PANC-1; PANC-1, 72 h, MTT)?
A: The IC50 was greater than 16 µg/mL.

Q: And the inhibition at 16 µg/mL (Becap37; Becap37, 16 μg/mL compound, 72 h, read-out: IR (inhibition rate))?
A: The inhibition at 16 µg/mL was 23.4%.

Q: And the IC50 (Becap37; Becap37, 72 h, MTT)?
A: The IC50 was greater than 16 µg/mL.

Q: What about the IC50 (MG 63; Homo sapiens, MG 63, 72 h, MTT) of the same compound?
A: The IC50 was greater than 16 µg/mL.

Q: And the “IR (inhibition rate)” value (MG 63; MG 63, 16 μg/mL compound, 72 h)?
A: Its value is 29.2%.

Q: What about the inhibition at 16 µg/mL (Hep G2; Hep G2, 16 μg/mL compound, 72 h, read-out: IR (inhibition rate)) of the same compound?
A: Its inhibition at 16 µg/mL is -18.5%.

Q: What about the IC50 (Hep G2; Hep G2, 72 h, MTT) of the same compound?
A: The IC50 was greater than 16 µg/mL.

Q: And the inhibition at 16 µg/mL (RKO; [1])?
A: Its inhibition at 16 µg/mL is 14.3%.

Q: What about the IC50 (RKO; MTT) of the same compound?
A: Its IC50 is greater than 16 µg/mL.

Q: And the inhibition at 16 µg/mL (U87 MG; [1])?
A: Its inhibition at 16 µg/mL is 21.8%.

Q: What about the IC50 (U87 MG; MTT) of the same compound?
A: Its IC50 is greater than 16 µg/mL.

Q: What about the inhibition at 16 µg/mL (Hela; [1]) of the same compound?
A: Its inhibition at 16 µg/mL is 22.9%.

Q: And the IC50 (Hela; MTT)?
A: The IC50 was greater than 16 µg/mL.

Q: And the inhibition at 16 µg/mL (CaES-17; CaES-17, 16 μg/mL compound, 72 h, read-out: IR (inhibition rate))?
A: Its inhibition at 16 µg/mL is 27.4%.

Q: What about the IC50 (CaES-17; CaES-17, 72 h, MTT) of the same compound?
A: The IC50 was greater than 16 µg/mL.

Q: And the inhibition at 16 µg/mL (CNE; [1])?
A: Its inhibition at 16 µg/mL is 33.9%.

Q: And the IC50 (CNE; MTT)?
A: Its IC50 is greater than 16 µg/mL.

Q: And the inhibition at 16 µg/mL (Hep-2; Hep-2, 16 μg/mL compound, 72 h, read-out: IR (inhibition rate))?
A: The inhibition at 16 µg/mL was 9.8%.

Q: And the IC50 (Hep-2; Hep-2, 72 h, MTT)?
A: Its IC50 is greater than 16 µg/mL.

Q: And the inhibition at 16 µg/mL (MGC803; MGC803, 16 μg/mL compound, 72 h, read-out: IR (inhibition rate))?
A: Its inhibition at 16 µg/mL is 19.7%.

Q: What about the IC50 (MGC803; MGC803, 72 h, MTT) of the same compound?
A: Its IC50 is greater than 16 µg/mL.

Q: And the inhibition at 16 µg/mL (PC-3; PC-3, 16 μg/mL compound, 72 h, read-out: IR (inhibition rate))?
A: The inhibition at 16 µg/mL was 29.1%.

Q: What about the IC50 (PC-3; PC-3, 72 h, MTT) of the same compound?
A: The IC50 was greater than 16 µg/mL.

Q: What about the inhibition at 16 µg/mL (SK-OV-3; SK-OV-3, 16 μg/mL compound, 72 h, read-out: IR (inhibition rate)) of the same compound?
A: Its inhibition at 16 µg/mL is 8.3%.

Q: And the IC50 (SK-OV-3; SK-OV-3, 72 h, MTT)?
A: The IC50 was greater than 16 µg/mL.
